Patent US20230210999A1, “TARGETED PROTEASE DEGRADATION (TED) PLATFORM” (EUBULUS BIOTHERAPEUTICS INC., priority 2020, published 2023)

How the values were obtained:
U-87MG cells = assay: Cell proliferation experiment, U-87MG; assay type: cell-based; settings: Homo sapiens; U-87MG cells, 72 h; read-out: Inhibitory activity IC50 of tested compounds on U-87MG cells
Outline: (§1)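 Viability measured by Alamar blue fluorescence after 72 h culture with compound (5-fold serial dilutions, two wells each) added to log-phase cells. IC50 derived from a Min/Max/Slope logistic equation.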

NCIH82 cells = assay: Cell proliferation experiment, NCI-H82; assay type: cell-based, human; settings: Homo sapiens, NCI-H82, 72 h, NCIH82 cells, 72 h; read-out: Inhibitory activity IC50 of tested compounds on NCIH82 cells
Outline: as §1

MV4;11 cells = assay: Cell proliferation experiment (Alamar blue, 72 h), MV4;11; assay type: cell-based, human; settings: Homo sapiens, MV4-11, 72 h, MV4;11 cells, 72 h; read-out: Inhibitory activity IC50 of tested compounds on MV4;11 cells
Outline: as §1

HUVEC cells = assay: Cell proliferation experiment, HUVEC; assay type: cell-based; settings: Homo sapiens, 72 h, read-out: Inhibitory activity IC50 of tested compounds on HUVEC cells
Description: (§2) Reagents: RPMI-1640 medium, McCoy's 5A medium, IMDM medium, MEM medium, L-15 medium, fetal bovine serum. Penicillin-Streptomycin double antibody, trypsin, etc., 2-mercaptoethanol, NEAA, pyruvate, etc.
(§3) The cells were cultured in conventional ways, and the cells should be passed at least 2 generations before plating. Cells at the logarithmic growth phase were collected, prepared into single cell suspensions and counted. The concentration of cells was adjusted to the desired concentration, and cells were inoculated into a 96-well cell culture plate at 100 μl per well. 100 μL of complete medium of the test compound were added to each well, set up 2 duplicate wells for each concentration, and diluted with a 5-fold gradient, and continued to culture for 72 h. All cells were subjected to IC50 test for corresponding samples. The experimental results are shown in Test Example 4.
(§4) The fluorescence intensity of each well was detected using the Alarm blue method, and IC50 was calculated.
(§5) IC50 was calculated according to the following formula:
(§6) Y=Max+(Min−Max)/[1+(X/IC50)×Slope]
(§7) wherein Min, Max and Slope represent the minimum, maximum and slope respectively.

Daudi cells = assay: Cell proliferation experiment, Daudi; assay type: cell-based, human; settings: Homo sapiens, Daudi, 72 h, Daudi cells, 72 h; read-out: Inhibitory activity IC50 of tested compounds on Daudi cells
Outline: as §1

HT-29 cells = assay: Cell proliferation experiment, HT-29; assay type: cell-based; settings: Homo sapiens; HT-29 cells, 72 h; read-out: Inhibitory activity IC50 of tested compounds on HT-29 cells
Outline: as §1

Hela cells = assay: Cell proliferation experiment, Hela; assay type: cell-based; settings: Homo sapiens, 72 h, read-out: Inhibitory activity IC50 of tested compounds on Hela cells
Description: as §2, §3, §4, §5, §6, §7

THP-1 cells = assay: Cell proliferation experiment, THP-1; assay type: cell-based; settings: Homo sapiens, 72 h, read-out: Inhibitory activity IC50 of tested compounds on THP-1 cells
Description: as §2, §3, §4, §5, §6, §7

HL-60 cells = assay: Cell proliferation experiment, HL-60; assay type: cell-based; settings: Homo sapiens, 72 h, read-out: Inhibitory activity IC50 of tested compounds on HL-60 cells
Description: as §2, §3, §4, §5, §6, §7

MDA-MB-231 cells = assay: Cell proliferation experiment, MDA-MB-231; assay type: cell-based, human; settings: Homo sapiens, MDA-MB-231, 72 h, MDA-MB-231 cells, 72 h; read-out: Inhibitory activity IC50 of tested compounds on MDA-MB-231 cells
Outline: as §1

MOL4-4 cells = assay: Cell proliferation experiment, MOL4-4; assay type: cell-based; settings: Homo sapiens, 72 h, read-out: Inhibitory activity IC50 of tested compounds on MOL4-4 cells
Description: as §2, §3, §4, §5, §6, §7

Row | Structure (SMILES) | IC50 (U-87MG cells) [nM] | IC50 (NCIH82 cells) [nM] | IC50 (MV4;11 cells) [nM] | IC50 (HUVEC cells) [nM] | IC50 (Daudi cells) [nM] | IC50 (HT-29 cells) [nM] | IC50 (Hela cells) [nM] | IC50 (THP-1 cells) [nM] | IC50 (HL-60 cells) [nM] | IC50 (MDA-MB-231 cells) [nM] | IC50 (MOL4-4 cells) [nM]
1 | CC[C@@H]1C(=O)N(C)c2cnc(Nc3ccc(C(=O)NCCCOCCOCCCN(C)CCC#Cc4cccc5c4CN(C4CCC(=O)NC4=O)C5=O)cc3OC)nc2N1C1CCCC1 (some centres unmarked) [Compound 883] | ≤ 100 | ≤ 1000 | ≤ 100 | ≤ 1000 | ≤ 100 | 300 to 1000 | ≤ 1000 | ≤ 1000 | ≤ 1000 | ≤ 500 | ≤ 100
2 | CC[C@@H]1C(=O)N(C)c2cnc(Nc3ccc(C(=O)NCCCN(C)CCOCCCC#Cc4cccc5c4CN(C4CCC(=O)NC4=O)C5=O)cc3OC)nc2N1C1CCCC1 (some centres unmarked) [Compound 884] | ≤ 100 | ≤ 1000 | ≤ 100 | ≤ 1000 | ≤ 100 | 300 to 1000 | ≤ 1000 | ≤ 1000 | ≤ 1000 | ≤ 500 | ≤ 100
3 | CC[C@@H]1C(=O)N(C)c2cnc(Nc3ccc(C(=O)NCCCOCCNCCC#Cc4cccc5c4CN(C4CCC(=O)NC4=O)C5=O)cc3OC)nc2N1C1CCCC1 (some centres unmarked) [Compound 888] | 100 to 500 | ≤ 1000 | ≤ 100 | ≤ 1000 | ≤ 100 | 300 to 1000 | ≤ 1000 | ≤ 1000 | ≤ 1000 | ≤ 500 | ≤ 100
4 | CC[C@@H]1C(=O)N(C)c2cnc(Nc3ccc(C(=O)NC4CCC(N5CCN(CCC#Cc6cccc7c6CN(C6CCC(=O)NC6=O)C7=O)CC5)CC4)cc3OC)nc2N1C1CCCC1 (some centres unmarked) [Compound 889] | ≤ 100 | ≤ 1000 | ≤ 100 | ≤ 1000 | ≤ 100 | ≤ 300 | ≤ 1000 | ≤ 1000 | ≤ 1000 | ≤ 500 | ≤ 100
